Results reported in ChEMBL document CHEMBL1201862, “PubChem BioAssay data set” (2004).
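Results reflect a 48-hour exposure of cells in 96-well plates to compound at five concentrations. GI50: concentration for 50% inhibition of growth.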 Calls of active or inactive are those of the source. No stated cut-off is given here; in the data, active = GI50 up to about 1.1 µM and inactive = higher.

How the values were obtained:
Assay in all cases: growth of human tumour cells (NCI), 48 h
UACC-257 = test system: UACC-257
A549 = test system: A549
SR = test system: SR
SN12C = test system: SN12C
CAKI-1 = test system: CAKI-1
EKVX = test system: EKVX
LXFL 529 = test system: LXFL 529
SF-539 = test system: SF-539
SK-MEL-2 = test system: SK-MEL-2
RPMI-8226 = test system: RPMI-8226
OVCAR-8 = test system: OVCAR-8
XF498 = test system: XF498
HCT-116 = test system: HCT-116
HCC 2998 = test system: HCC 2998
HCT-15 = test system: HCT-15
DMS-273 = test system: DMS-273
SNB-75 = test system: SNB-75
NCI-H522 = test system: NCI-H522
SW-620 = test system: SW-620
COLO 205 = test system: COLO 205
M19-MEL = test system: M19-MEL
LOX IMVI = test system: LOX IMVI
SF-295 = test system: SF-295
786-0 = test system: 786-0
DMS-114 = test system: DMS-114
IGROV-1 = test system: IGROV-1
CCRF-CEM = test system: CCRF-CEM
NCI-H23 = test system: NCI-H23
MOLT-4 = test system: MOLT-4
U-251 = test system: U-251
SF-268 = test system: SF-268
RXF 631 = test system: RXF 631
Malme-3M = test system: Malme-3M
UO-31 = test system: UO-31
KM12 = test system: KM12
KM-20L2 = test system: KM-20L2
OVCAR-5 = test system: OVCAR-5
NCI-H460 = test system: NCI-H460
ACHN = test system: ACHN
SK-OV-3 = test system: SK-OV-3
SK-MEL-5 = test system: SK-MEL-5
DLD-1 = test system: DLD-1
K562 = test system: K562
SK-MEL-28 = test system: SK-MEL-28
OVCAR-4 = test system: OVCAR-4
SNB-78 = test system: SNB-78
HT-29 = test system: HT-29
M14 = test system: M14
HOP-62 = test system: HOP-62
NCI-H226 = test system: NCI-H226
UACC-62 = test system: UACC-62
SNB-19 = test system: SNB-19
OVCAR-3 = test system: OVCAR-3

Cc1nc2c(nc1Cl)nc(Oc1ccc(Cl)cc1)c1ccccc12
GI50 (UACC-257): > 100 µM (inactive) | GI50 (A549): 34.6 µM (inactive) | GI50 (SR): > 100 µM (inactive) | GI50 (SN12C): 43.6 µM (inactive) | GI50 (CAKI-1): > 100 µM (inactive) | GI50 (EKVX): > 100 µM (inactive) | GI50 (LXFL 529): 51.4 µM (inactive) | GI50 (SF-539): 90.8 µM (inactive) | GI50 (SK-MEL-2): > 100 µM (inactive) | GI50 (RPMI-8226): > 100 µM (inactive) | GI50 (OVCAR-8): 23.9 µM (inactive) | GI50 (XF498): 73.3 µM (inactive) | GI50 (HCT-116): 41.7 µM (inactive) | GI50 (HCC 2998): > 100 µM (inactive) | GI50 (HCT-15): > 100 µM | GI50 (DMS-273): 46.5 µM (inactive) | GI50 (SNB-75): 26.7 µM (inactive) | GI50 (NCI-H522): 50.9 µM (inactive) | GI50 (SW-620): 50.4 µM (inactive) | GI50 (COLO 205): > 100 µM (inactive) | GI50 (M19-MEL): > 100 µM (inactive) | GI50 (LOX IMVI): 59.6 µM (inactive) | GI50 (SF-295): 37.2 µM (inactive) | GI50 (786-0): 18.6 µM (inactive) | GI50 (DMS-114): 47.5 µM (inactive) | GI50 (IGROV-1): 55.7 µM (inactive) | GI50 (CCRF-CEM): > 100 µM (inactive) | GI50 (NCI-H23): 45.8 µM (inactive) | GI50 (MOLT-4): > 100 µM (inactive) | GI50 (U-251): 19.5 µM (inactive) | GI50 (SF-268): 56.8 µM (inactive) | GI50 (RXF 631): > 100 µM (inactive) | GI50 (Malme-3M): 74.3 µM (inactive) | GI50 (UO-31): 27 µM (inactive) | GI50 (KM12): > 100 µM (inactive) | GI50 (KM-20L2): > 100 µM (inactive) | GI50 (OVCAR-5): > 100 µM (inactive) | GI50 (NCI-H460): 62.4 µM (inactive) | GI50 (ACHN): 39.5 µM (inactive) | GI50 (SK-OV-3): > 100 µM (inactive) | GI50 (SK-MEL-5): 57.5 µM (inactive) | GI50 (DLD-1): 49.9 µM (inactive) | GI50 (K562): > 100 µM (inactive) | GI50 (SK-MEL-28): > 100 µM (inactive) | GI50 (OVCAR-4): 32 µM (inactive) | GI50 (SNB-78): 59.4 µM (inactive) | GI50 (HT-29): > 100 µM (inactive) | GI50 (M14): 85.7 µM (inactive) | GI50 (HOP-62): 28.6 µM (inactive) | GI50 (NCI-H226): 27.9 µM (inactive) | GI50 (UACC-62): 48.2 µM (inactive) | GI50 (SNB-19): 82.8 µM (inactive) | GI50 (OVCAR-3): > 100 µM (inactive)
